Our source for the TGI values is PubChem BioAssay (NCI).

Among the test systems are MDA-N; HCC-2998 colon; SNB-75 CNS; SN12C renal; SF-295 CNS; LOX IMVI melanoma; RXF 393 renal; HOP-92 NSCLC; MDA-MB-231 breast; SK-MEL-5 melanoma; HOP-62 NSCLC.
Experiment in all cases: DTP human tumour cell line panel, 48 h

Molecules are shown by their SMILES.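 Protocol summary: plate cells (96-well), add compound at 5 concentrations, incubate 48 h, interpolate endpoints linearly. The concentration for full growth arrest is given as TGI.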

The term TGI denotes the concentration giving total growth inhibition. Lower therefore signals greater sensitivity of the cells. As for `Cc1ccc(OCCn2cc(Nc3ccccc3)c(=O)[nH]c2=O)cc1`, the TGI in the test with MDA-N, in the test with HCC-2998 colon, in the test with SNB-75 CNS, in the test on SN12C renal, in the test with SF-295 CNS and with LOX IMVI melanoma was > 100 µM throughout. In addition, the TGI in the test with RXF 393 renal, in the test with HOP-92 NSCLC, in the test on MDA-MB-231 breast and in the test on SK-MEL-5 melanoma was > 100 µM in each case.

As for `Nc1nc(Cl)cc(NCC2(CO)CCC(OCc3ccccc3)C2)n1` (centres undefined), the TGI with MDA-N was 74.6 µM; with SNB-75 CNS, 53.4 µM; in the test with SN12C renal, 93 µM; in the test on SF-295 CNS, > 100 µM; with LOX IMVI melanoma, 46.4 µM; in the test with RXF 393 renal, > 100 µM. Besides, the TGI in the test on HOP-62 NSCLC is > 100 µM; in the test on HOP-92 NSCLC, 37 µM; in the test on MDA-MB-231 breast, 42.8 µM; with SK-MEL-5 melanoma, 18.8 µM.

`c1ccc(-c2cc(-c3cc(-c4ccccc4)no3)on2)cc1`: the total growth inhibition concentration (TGI) in the test on MDA-N, with HCC-2998 colon, in the test with SN12C renal, with SF-295 CNS, in the test with LOX IMVI melanoma and in the test on RXF 393 renal was > 100 µM throughout. For the same molecule, the TGI was > 100 µM in the test on HOP-62 NSCLC, > 100 µM in the test with HOP-92 NSCLC, 74.8 µM in the test with MDA-MB-231 breast and > 100 µM in the test on SK-MEL-5 melanoma.

As for `CC(C)(Cc1ccccc1)Cc1cc(O)ccc1O`, the TGI in the test on MDA-N was determined as 56.6 µM; in the test on HCC-2998 colon, 39.1 µM; with SNB-75 CNS, 68.1 µM; in the test on SN12C renal it was 41.3 µM; in the test with SF-295 CNS, 73.5 µM; with LOX IMVI melanoma, 26.8 µM. Moreover, the TGI in the test with RXF 393 renal turned out to be 28.9 µM; with HOP-62 NSCLC, 64.3 µM; with HOP-92 NSCLC, 36.5 µM; in the test with MDA-MB-231 breast, 39.2 µM.

Consider `CCC(C)(C)c1ccc(Oc2cccc(C(=O)O)c2)cc1`, for which the concentration for total growth inhibition (TGI) in the test with MDA-N, in the test on HCC-2998 colon, with SNB-75 CNS, in the test with SN12C renal, in the test with SF-295 CNS and in the test with LOX IMVI melanoma was > 100 µM throughout. The TGI in the test with RXF 393 renal, in the test on HOP-62 NSCLC, in the test on MDA-MB-231 breast and with SK-MEL-5 melanoma was > 100 µM throughout.

Consider `O=C(CN1CCCC1)Nc1ccc2sc3ccccc3c(=O)c2n1`, for which the TGI with MDA-N was 77.6 µM; in the test with HCC-2998 colon, 39.8 µM; in the test with SNB-75 CNS, 60 µM; in the test with SN12C renal it was > 100 µM; in the test on SF-295 CNS it was 67.8 µM; with LOX IMVI melanoma, 37.3 µM. In addition, the TGI is 65 µM in the test with HOP-62 NSCLC, 74.6 µM in the test with HOP-92 NSCLC, > 100 µM in the test with MDA-MB-231 breast and 53.4 µM in the test on SK-MEL-5 melanoma.

With `COc1ccc(N2C(=O)CC(c3c[nH]c4ccccc34)C2=O)cc1` (centres undefined), the TGI in the test on MDA-N, with HCC-2998 colon, in the test with SN12C renal, with SF-295 CNS, with LOX IMVI melanoma and in the test on RXF 393 renal was > 100 µM throughout. The TGI in the test with HOP-62 NSCLC, in the test on HOP-92 NSCLC, with MDA-MB-231 breast and with SK-MEL-5 melanoma was > 100 µM each time.

On to `CC(C)(C)OC(=O)N1C(=O)OC[C@@H]2C=C[C@@H]21`, for which the TGI in the test with MDA-N, with SN12C renal, in the test with SF-295 CNS, in the test with LOX IMVI melanoma, with RXF 393 renal and with HOP-62 NSCLC was > 100 µM throughout. Besides, the TGI in the test with HOP-92 NSCLC, in the test on MDA-MB-231 breast and in the test with SK-MEL-5 melanoma was > 100 µM in each case.

In the case of `COc1ccc2nc(-c3ccc(O)cc3)cn2c1`, the TGI with MDA-N, in the test on SNB-75 CNS, in the test with SN12C renal, in the test on SF-295 CNS, in the test with LOX IMVI melanoma and in the test on RXF 393 renal was > 100 µM throughout. Also, the TGI was > 100 µM in the test on HOP-62 NSCLC, > 100 µM in the test on HOP-92 NSCLC, > 100 µM in the test on MDA-MB-231 breast and 62.6 µM with SK-MEL-5 melanoma.

For the molecule `Clc1ccc(-c2cc(-c3nc4ccccc4[nH]3)no2)cc1`, the total growth inhibition concentration (TGI) with MDA-N came out at 33.8 µM; in the test with HCC-2998 colon, 33.5 µM; in the test on SNB-75 CNS, 44.5 µM; in the test with SN12C renal it was 35 µM; in the test with SF-295 CNS, 33 µM; with LOX IMVI melanoma, 35.5 µM. In addition, the TGI came to 38.2 µM in the test on HOP-62 NSCLC, 66.7 µM with HOP-92 NSCLC, 35.5 µM in the test with MDA-MB-231 breast and 34.7 µM in the test on SK-MEL-5 melanoma.

In the case of `O=c1[nH][nH]c(=S)c(=O)[nH]1`, the TGI with MDA-N, in the test on SNB-75 CNS, in the test on SN12C renal, in the test with SF-295 CNS, in the test with LOX IMVI melanoma and in the test on RXF 393 renal was > 100 µM each time. The TGI in the test with HOP-62 NSCLC, with HOP-92 NSCLC, in the test on MDA-MB-231 breast and in the test on SK-MEL-5 melanoma was > 100 µM each time.

As for `Cc1cccc(C(O)c2ccccn2)c1O` (centres undefined), the TGI in the test with MDA-N, in the test on HCC-2998 colon, in the test on SNB-75 CNS, in the test on SN12C renal, in the test on SF-295 CNS and in the test on LOX IMVI melanoma was > 100 µM each time. Further, the TGI in the test on RXF 393 renal, in the test with HOP-62 NSCLC, in the test on MDA-MB-231 breast and with SK-MEL-5 melanoma was > 100 µM each time.
